# According to patent US20210214758A1, “METHODS AND TOOLS FOR DETERMINING CLONAL RELATEDNESS AND PREDICTING CLONAL TRAITS” (priority 2018, published 2021):
# Test system: Klebsiella isolates
# Assay: Antibiotic susceptibility of Klebsiella clinical isolates per 7-SNP clonotype (Lookup Table 1; disk diffusion)
# Format: cell-based, Klebsiella spp.
# Conditions: CT 301
# Method: In further embodiments, the Lookup Table is Lookup Table 1. The information contained in Lookup Table 1 below was obtained from urine specimens from patients with Klebsiella infections from several clinics within different regions of the United States. CT=clonotypes determined using a 7-SNP combination: phoE54; rpoB130; infB279; mdh315; phoE336; phoE354; and mdh429.
# Next, antibiotic resistance was determined for all 387 Klebsiella isolates in the discovery set. Antibiotic testing was carried out according to the standard disk diffusion method as described in the Clinical and Laboratory Standards Institute (M100 Performance Standards for Antimicrobial Susceptibility Testing, 27th Edition, 2017). […] Since almost all Klebsiella isolates are known to be resistant to AMP and sensitive to IMI, TET is not used for treatment of urinary tract infections, and ESBL production is partially reflected in resistance to CTR, these antibiotics were not included for further analysis.
# To aid in clinical decision-making and to translate clonotype information to treatment selection, Lookup Table 1 was generated. […] The information contained in Lookup Table 1 was obtained from urine specimens from patients with Klebsiella infections from several clinics within different regions of the United States. Indications of allowance or non-recommendation were determined based on a 20% resistance threshold to the indicated antibiotic; i.e., the antibiotic is recommended when more than 80% of the tested isolates within the indicated clonotype were susceptible to the indicated antibiotic, and was cautioned against when less than 80% of the isolates were susceptible to the antibiotic.
row,SMILES,"susceptibility, % [%]"
1,"O=C1CN(/N=C/c2ccc([N+](=O)[O-])o2)C(=O)N1 [NIT, nitrofurantoin]",64

# Same assay, conditions: CT 310
row,SMILES,"susceptibility, % [%]"
1,"O=C1CN(/N=C/c2ccc([N+](=O)[O-])o2)C(=O)N1 [NIT, nitrofurantoin]",47

# Same assay, conditions: CT 311
row,SMILES,"susceptibility, % [%]"
1,"O=C1CN(/N=C/c2ccc([N+](=O)[O-])o2)C(=O)N1 [NIT, nitrofurantoin]",60

# Same assay, conditions: CT 330
row,SMILES,"susceptibility, % [%]"
1,"O=C1CN(/N=C/c2ccc([N+](=O)[O-])o2)C(=O)N1 [NIT, nitrofurantoin]",15

# Same assay, conditions: CT 331
row,SMILES,"susceptibility, % [%]"
1,"O=C1CN(/N=C/c2ccc([N+](=O)[O-])o2)C(=O)N1 [NIT, nitrofurantoin]",53

# Same assay, conditions: CT 350
row,SMILES,"susceptibility, % [%]"
1,"O=C1CN(/N=C/c2ccc([N+](=O)[O-])o2)C(=O)N1 [NIT, nitrofurantoin]",54

# Same assay, conditions: CT 351
row,SMILES,"susceptibility, % [%]"
1,"O=C1CN(/N=C/c2ccc([N+](=O)[O-])o2)C(=O)N1 [NIT, nitrofurantoin]",59

# Same assay, conditions: CT 370
row,SMILES,"susceptibility, % [%]"
1,"O=C1CN(/N=C/c2ccc([N+](=O)[O-])o2)C(=O)N1 [NIT, nitrofurantoin]",25

# Same assay, conditions: CT 371
row,SMILES,"susceptibility, % [%]"
1,"O=C1CN(/N=C/c2ccc([N+](=O)[O-])o2)C(=O)N1 [NIT, nitrofurantoin]",25

# Same assay, conditions: CT 411
row,SMILES,"susceptibility, % [%]"
1,"O=C1CN(/N=C/c2ccc([N+](=O)[O-])o2)C(=O)N1 [NIT, nitrofurantoin]",50

# Same assay, conditions: CT 450
row,SMILES,"susceptibility, % [%]"
1,"O=C1CN(/N=C/c2ccc([N+](=O)[O-])o2)C(=O)N1 [NIT, nitrofurantoin]",50

# Same assay, conditions: CT 451
row,SMILES,"susceptibility, % [%]"
1,"O=C1CN(/N=C/c2ccc([N+](=O)[O-])o2)C(=O)N1 [NIT, nitrofurantoin]",67

# Same assay, conditions: CT 510
row,SMILES,"susceptibility, % [%]"
1,"O=C1CN(/N=C/c2ccc([N+](=O)[O-])o2)C(=O)N1 [NIT, nitrofurantoin]",0

# Same assay, conditions: CT 511
row,SMILES,"susceptibility, % [%]"
1,"O=C1CN(/N=C/c2ccc([N+](=O)[O-])o2)C(=O)N1 [NIT, nitrofurantoin]",100

# Same assay, conditions: CT 530
row,SMILES,"susceptibility, % [%]"
1,"O=C1CN(/N=C/c2ccc([N+](=O)[O-])o2)C(=O)N1 [NIT, nitrofurantoin]",31

# Same assay, conditions: CT 531
row,SMILES,"susceptibility, % [%]"
1,"O=C1CN(/N=C/c2ccc([N+](=O)[O-])o2)C(=O)N1 [NIT, nitrofurantoin]",33

# Same assay, conditions: CT 550
row,SMILES,"susceptibility, % [%]"
1,"O=C1CN(/N=C/c2ccc([N+](=O)[O-])o2)C(=O)N1 [NIT, nitrofurantoin]",19

# Same assay, conditions: CT 551
row,SMILES,"susceptibility, % [%]"
1,"O=C1CN(/N=C/c2ccc([N+](=O)[O-])o2)C(=O)N1 [NIT, nitrofurantoin]",18

# Same assay, conditions: CT 570
row,SMILES,"susceptibility, % [%]"
1,"O=C1CN(/N=C/c2ccc([N+](=O)[O-])o2)C(=O)N1 [NIT, nitrofurantoin]",25

# Same assay, conditions: CT 571
row,SMILES,"susceptibility, % [%]"
1,"O=C1CN(/N=C/c2ccc([N+](=O)[O-])o2)C(=O)N1 [NIT, nitrofurantoin]",50

# Same assay, conditions: CT 611
row,SMILES,"susceptibility, % [%]"
1,"O=C1CN(/N=C/c2ccc([N+](=O)[O-])o2)C(=O)N1 [NIT, nitrofurantoin]",50

# Same assay, conditions: CT 630
row,SMILES,"susceptibility, % [%]"
1,"O=C1CN(/N=C/c2ccc([N+](=O)[O-])o2)C(=O)N1 [NIT, nitrofurantoin]",0

# Same assay, conditions: CT 650
row,SMILES,"susceptibility, % [%]"
1,"O=C1CN(/N=C/c2ccc([N+](=O)[O-])o2)C(=O)N1 [NIT, nitrofurantoin]",63

# Same assay, conditions: CT 651
row,SMILES,"susceptibility, % [%]"
1,"O=C1CN(/N=C/c2ccc([N+](=O)[O-])o2)C(=O)N1 [NIT, nitrofurantoin]",35

# Same assay, conditions: CT 670
row,SMILES,"susceptibility, % [%]"
1,"O=C1CN(/N=C/c2ccc([N+](=O)[O-])o2)C(=O)N1 [NIT, nitrofurantoin]",0

# Same assay, conditions: CT 710
row,SMILES,"susceptibility, % [%]"
1,"O=C1CN(/N=C/c2ccc([N+](=O)[O-])o2)C(=O)N1 [NIT, nitrofurantoin]",67

# Same assay, conditions: CT 730
row,SMILES,"susceptibility, % [%]"
1,"O=C1CN(/N=C/c2ccc([N+](=O)[O-])o2)C(=O)N1 [NIT, nitrofurantoin]",36

# Same assay, conditions: CT 731
row,SMILES,"susceptibility, % [%]"
1,"O=C1CN(/N=C/c2ccc([N+](=O)[O-])o2)C(=O)N1 [NIT, nitrofurantoin]",67

# Same assay, conditions: CT 750
row,SMILES,"susceptibility, % [%]"
1,"O=C1CN(/N=C/c2ccc([N+](=O)[O-])o2)C(=O)N1 [NIT, nitrofurantoin]",50

# Same assay, conditions: CT 751
row,SMILES,"susceptibility, % [%]"
1,"O=C1CN(/N=C/c2ccc([N+](=O)[O-])o2)C(=O)N1 [NIT, nitrofurantoin]",33

# Same assay, conditions: CT 771
row,SMILES,"susceptibility, % [%]"
1,"O=C1CN(/N=C/c2ccc([N+](=O)[O-])o2)C(=O)N1 [NIT, nitrofurantoin]",57

# Same assay, conditions: CT Any Klebsiella spp.
row,SMILES,"susceptibility, % [%]"
1,"O=C1CN(/N=C/c2ccc([N+](=O)[O-])o2)C(=O)N1 [NIT, nitrofurantoin]",59
